Where a name gives a salt, the structure may show the parent alone.
How the values were obtained:
Assay type in all cases: in vivo, rat
[1] = tested on: MK801 treated rats; test: Pre-Pulse Inhibition (PPI) paradigm, MK801 animal model
Description: (§1) Acoustic Startle Response (ASR) and Pre-Pulse Inhibition (PPI): Both experimental paradigms were performed in a room that was adjacent to the laboratory facilities and the animal stall and that was not used for other experiments. The animals were tested in squad of two with startle chambers counterbalanced across the different experimental groups. Startle response and prepulse inhibition were measured using two ventilated startle chambers (SR-LAB system, San Diego Instruments, San Diego, Calif.). Each chamber consisted of a Plexiglas cylinder resting on a platform inside a sound-attenuated, ventilated chamber. A high-frequency loudspeaker inside the chamber produced both a continuous broadband background noise of 70 dB and the various acoustic stimuli. Movement inside the tube was detected by a piezoelectric accelerometer below the frame. The amplitude of the whole body startle to an acoustic pulse was defined as the average of 100 one-msec accelerometer readings collected from pulse onset. These signals were then digitized and stored by a computer. Sound levels within each test chamber were measured routinely using a sound level meter (Radio Shack) to ensure consistent presentation. The SR-LAB calibration unit was used routinely to ensure consistent stabilimeter sensitivity between test chambers and over time (Swerdlow and Geyer, 1998, Schizophrenia Bulletin, 24(2), 285-301).
(§2) Fifteen minutes before the behavioral procedures conducted at the fourth day, the subject was injected i.p. with an 0.1 mg/kg dose of MK801 or saline, for a total volume of 1 ml per kg of body weight. Next, the subjects passed the three behavioral procedures, described in the following paragraphs.
(§3) ASR and PPI were measured using two startle chambers, with each chamber consisting of a Plexiglas cylinder resting on a platform inside a sound-attenuated, ventilated chamber (see also materials section). The animals were tested in pairs with startle chambers counterbalanced across the different experimental groups.
PPI of the startle response was used as a measure of sensorimotor gating, with the startle chambers used to assess the ability of prepulse stimuli to block the startle response. […]
Pre-Pulse Inhibition (PPI): Startle magnitude is expressed in all the procedures as arbitrary units. Percent PPI (% PPI) was calculated as the mean startle magnitude to stimulus-alone minus the mean startle magnitude to prepulse-stimulus trials, all divided by the mean stimulus-alone trials, and multiplied by 100. The overall mean % PPI was calculated for the four prepulse intensities (72, […], 80, 84 dB). Results were analyzed by two-way ANOVA with a between-subject measure of ‘group’ (difference the treatment groups) and ‘prepulse intensity’ (72, 76, 80, 84 dB).

[2] = tested on: MK801 treated rats; test: Morris Water Maze (MWM) task, MK801 animal model of schizophrenia; conditions: MK801 alone vs saline group, p<0.001
Description: Morris Water Maze (MWM): The MWM consisted of a water pool (diameter=1.8 m; depth=0.6 m) containing water at 26±1° C. A hidden platform was located 1.5 cm below the water surface. Within the testing room, only distal visuo-spatial cues were available to the rats for location of the submerged platform. A video camera was placed above the center of the pool for tracking the rat, and a video tracking system (Noldus Information Technology b.v., Wageninpen, The Netherlands) with online digital output, directly fed data into a computer and analyzed. Data were analyzed by using an Etho-Vision automated tracking system (Noldus Information Technology).
as §2
The MWM, a hippocampal-dependent visuo-spatial learning task, was used to assess the subjects' spatial learning/memory. The ability of an animal to locate a hidden platform submerged under water by using extra-maze cues from the test environment was examined. The rats were trained in a pool 1.8 m in diameter and 0.6 m high, containing water at 26±1° C. A 10 cm square transparent platform was hidden in a constant position in the pool submerged 1 cm below the water level. Within the testing room only distal visuo-spatial cues were available to the rats for location of the submerged platform.
Rats were given four trials per day, to find the hidden platform (acquisition phase). The escape latency, i.e., the time required by the rat to find and climb onto the platform, was recorded for up to 120 sec. Each rat was allowed to remain on the platform for 30 sec, and was then removed to its home cage.
Morris Water Maze (MWM): Escape latency, the time between placing the rat in the pool until it located the platform, was measured during behavioral testing. The escape latency was analyzed by means of […] repeated measures analysis of variance (ANOVA) with a between-subjects measure of ‘group’ (treatment group) and a within-subjects measure of ‘trail’ (effects amongst groups in the four different trials).
The MWM test was then performed (see FIG. 1 for results). A significant main effect of ‘group’, ‘trail’ and a significant ‘group’×‘trails’ interaction was found in the repeated measured ANOVA for the MWM task [F(5,35)=9.699, p<0.001; F(3,33)=31.551, p<0.001; F(15,91)=1.824, p<0.05; respectively].

[3] = tested on: MK801 treated rats; test: Habituation of the Acoustic Startle Response (ASR), MK801 animal model
Description: as §1, §2, §3
The ASR test measured the ability of the animal to habituate to repetitive loud pulses of noise. […] Movement inside the tube was detected by a piezoelectric accelerometer below the frame. The amplitude of the whole body startle to an acoustic pulse was defined as the average of 100 one-msec accelerometer readings collected from pulse onset. […]
Acoustic Startle Response (ASR): The decrease in ASR in the groups was calculated as the percent of amplitude decrease between the mean of the first five amplitude values and the mean of the last 25 amplitude values.
Percent habituation=100×[(average startle amplitude in Block 1)−(average startle amplitude in Block 5)/(average startle amplitude in Block 1)]. Results were analyzed by two-way ANOVA a between-subject measure of ‘group’ (treatment group).

[4] = drug+MK801 0.1 mg/kg i.p., minocycline 35 mg/kg x 3 days pretreatment, haloperidol 0.4 mg/kg i.p.

| SMILES | percent of PPI (% PPI) ([1]; MK801 alone vs saline treatment group) | escape latency [2] | percent habituation of the startle response (% habituation) ([3]; MK801 alone vs saline treated rats) | percent of PPI (% PPI) [1, 4] | percent habituation of the startle response (% habituation) [3, 4] |
| --- | --- | --- | --- | --- | --- |
| C[C@]12N[C@H](Cc3ccccc31)c1ccccc12 [MK801, Dizocilpine maleate] | induced a significant deficit in the PPI | longer escape latencies | induced a significant deficit in the habituation of ASR |  |  |
| O=C(CCCN1CCC(O)(c2ccc(Cl)cc2)CC1)c1ccc(F)cc1 [haloperidol] |  |  |  | lack of significant effects | not able to prevent the deficits induced by MK801 |

Source: US20130190275A1, “COMBINED THERAPIES OF ANTIPSYCHOTIC DRUGS AND TETRACYCLINES IN THE TREATMENT OF PSYCHIATRIC DISORDERS” (MOR RESEARCH APPLICATIONS LTD., priority 2006, published 2013)
